Measured values taken from ChEMBL document CHEMBL1201862, “PubChem BioAssay data set” (2004).
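Test compounds were applied to cells in 96-well plates for 48 hours at 5 doses. At the GI50, growth is halved.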 Calls of active or inactive are those of the source. Rule as the data show it: active = GI50 up to about 1.1 µM and inactive = higher.

Columns and labels:
Assay in all cases: DTP human tumour cell line panel, 48 h
[1] = tested on: UO-31
[2] = tested on: NCI-H460
[3] = tested on: KM12
[4] = tested on: SNB-75
[5] = tested on: OVCAR-3
[6] = tested on: HOP-62
[7] = tested on: SNB-19
[8] = tested on: IGROV-1
[9] = tested on: HCC 2998
[10] = tested on: SF-295
[11] = tested on: LXFL 529
[12] = tested on: OVCAR-8
[13] = tested on: A549
[14] = tested on: EKVX
[15] = tested on: RPMI-8226
[16] = tested on: NCI-H226
[17] = tested on: HCT-116
[18] = tested on: SK-MEL-5
[19] = tested on: LOX IMVI
[20] = tested on: SR

Measured: GI50

N#C/C(=C\c1cc(O)ccc1O)C(N)=O
inactive: [1] 35.7 µM | [2] 40.7 µM | [3] 46.1 µM | [4] 14.6 µM | [5] 38.6 µM | [6] > 100 µM | [7] 57.8 µM | [8] 99.5 µM | [9] 67.3 µM | [10] 47.6 µM | [11] 35.6 µM | [12] 50.6 µM | [13] 78.5 µM | [14] 33.1 µM | [15] 27.2 µM | [16] 34 µM | [17] 63.2 µM

CCc1ccc(Cc2ccc(CC)c(NC(=O)C(=O)Cc3nc4ccccc4nc3C)c2CC)c(CC)c1NC(=O)C(=O)Cc1nc2ccccc2nc1C
inactive: [18] > 100 µM | [1] 17.7 µM | [2] > 100 µM | [3] > 100 µM | [4] 9.77 µM | [5] 15 µM | [6] > 100 µM | [7] 45.1 µM | [8] > 100 µM | [19] > 100 µM | [9] 62.5 µM | [11] 54.1 µM | [12] > 100 µM | [13] > 100 µM | [14] 45.9 µM | [15] > 100 µM | [17] 52.5 µM

COC12OCCN(C)C1=CC(=O)C1=NNC(C)C12 (configuration not stated)
inactive: [18] > 100 µM | [1] > 100 µM | [2] > 100 µM | [3] > 100 µM | [4] > 100 µM | [5] > 100 µM | [8] > 100 µM | [19] > 100 µM | [9] > 100 µM | [10] > 100 µM | [11] > 100 µM | [12] > 100 µM | [13] > 100 µM | [14] > 100 µM | [15] > 100 µM | [16] > 100 µM | [17] > 100 µM

CCCCCCCCCCn1cccc1/C=C/c1ccc(/C=C/c2cccn2CCCCCCCCCC)cc1
inactive: [18] > 100 µM | [1] 88.7 µM | [2] > 100 µM | [3] > 100 µM | [4] > 100 µM | [5] > 100 µM | [6] > 100 µM | [7] > 100 µM | [8] > 100 µM | [19] > 100 µM | [9] > 100 µM | [10] > 100 µM | [11] > 100 µM | [12] > 100 µM | [13] > 100 µM | [14] > 100 µM | [15] > 100 µM | [16] > 100 µM | [17] > 100 µM

O=C(O)CCNCCCCNCCC(=O)O
inactive: [18] > 100 µM | [2] > 100 µM | [3] > 100 µM | [4] > 100 µM | [5] > 100 µM | [6] > 100 µM | [7] > 100 µM | [8] > 100 µM | [19] > 100 µM | [9] > 100 µM | [10] > 100 µM | [11] > 100 µM | [12] > 100 µM | [13] > 100 µM | [14] > 100 µM | [15] > 100 µM | [16] > 100 µM | [17] > 100 µM

CCOP(=O)(OCC)C(C(=O)OC)C(=O)C(=O)Nc1ccc(Cl)cc1Cl (configuration not stated)
inactive: [18] > 100 µM | [1] > 100 µM | [2] > 100 µM | [3] > 100 µM | [4] > 100 µM | [5] > 100 µM | [6] > 100 µM | [7] > 100 µM | [8] > 100 µM | [19] > 100 µM | [9] > 100 µM | [11] > 100 µM | [12] > 100 µM | [13] > 100 µM | [14] > 100 µM | [15] > 100 µM | [16] > 100 µM | [17] > 100 µM

COC(=O)C1=C(C(=O)OC)C2(CCCCCC2=O)OC1=O (configuration not stated)
inactive: [18] > 100 µM | [2] > 100 µM | [3] > 100 µM | [4] > 100 µM | [5] > 100 µM | [6] > 100 µM | [7] > 100 µM | [8] > 100 µM | [9] > 100 µM | [10] > 100 µM | [11] > 100 µM | [12] > 100 µM | [13] > 100 µM | [14] > 100 µM | [15] > 100 µM | [16] > 100 µM | [17] > 100 µM

N#CC1(N2CCCC2)CCC2(CC1)OCCO2
inactive: [18] > 100 µM | [1] > 100 µM | [2] > 100 µM | [20] > 100 µM | [3] > 100 µM | [4] > 100 µM | [5] > 100 µM | [6] > 100 µM | [7] > 100 µM | [8] > 100 µM | [19] > 100 µM | [9] > 100 µM | [10] > 100 µM | [12] > 100 µM | [13] > 100 µM | [14] > 100 µM | [15] > 100 µM | [16] > 100 µM | [17] > 100 µM
